Results taken from patent publication US6143737A, “Progesterone analogs to reverse multidrug resistance” (priority 1996, dated 2000).

Columns and labels:
[1] = tested on: MDA435/LCC6^MDR1 cells; conditions: 1 μM compound 4
Procedure: (§1) The growth inhibition experiments, i.e., anchorage dependent and independent assays, are designed to allow evaluation of drug interactions by isobologram analysis. Thus, they include a full definition of the dose-response curves relative to the single agents (untreated and up to 8 drug concentrations), all combinations of 5 concentrations of the modulating agent (e.g., C7 analogue) and up to 9 concentrations of the target agent. […] Briefly, cell monolayers are treated with the appropriate drugs, reversing agents and vehicle(s), the monolayers washed 3 times with growth media, gently trypsinized, and suspended in 1.5 ml growth medium containing 0.6% (w/v) agar at 41° C. […] This agar solution is placed over a solid bottom agar layer and incubated for 10 days at 37° C. Dishes are refed with 500 μl of growth medium on days 3 and 6. Colonies of 50 cells or more (~60 μm diameter) are counted using an Omnicron electronic colony counter. Statistical analyses of colony forming ability will be performed using ANOVA.
(§2) Dose-response curves of the cytotoxic drug are obtained in the absence and presence of the chemosensitizer. The curves are corrected by dividing the observed survival values by the fractional survival to the chemosensitizer alone (where present in the combination), and IC50 values obtained by interpolation on the corrected curves. The activity of the chemosensitizer will be quantified as FS=IC50 (-)/IC50 (+), where FS=Fold Sensitization, and IC50 (-) and IC50 (+) are the cytotoxic drug IC50 s respectively in the absence and presence of the chemosensitizer.

[2] = tested on: MCF-7^ADR cells
Procedure: as §1, §2

[3] = tested on: PGP-resistant cells; test: PGP-mediated resistance reversal (VBL cytotoxicity, continuous exposure); format: cell-based; conditions: preliminary data
Excerpt: (§3) Information on drug stability in serum also may be indirectly assessed by comparing effects on [^3 H] VBL accumulation with cytotoxicity (reversing) assays using a continuous exposure. For example, Thimmaiah, K. N. et al. (J. Med. Chem. 35:3358-3364 (1992)) reported that some phenoxazine analogues increased [^3 H] VBL accumulation but were ineffective at reversing VBL cytotoxicity. […] VBL accumulation and reversing PGP-mediated resistance.

[4] = tested on: MCF-7^ADR cells and cells transfected with the MDR gene (CL 10.3); format: cell-based, human
Procedure: (§4) While many PGP-reversing agents have been studied, the majority are maximally active in vitro at concentrations≥10 μM. It is widely acknowledged that, for many of these compounds, it is impossible to achieve this level in the sera of patients without inducing severe dose limiting toxicities (Miller, T. P. et al., J. Clin. Oncol. 9:17-24 (1991); Murren & Hait, Oncology Res. 1:1-6 (1992); Dalton, W. D. et al., J. Clin. Oncol. 7:415-424 (1989); Miller, R. L. et al., J. Clin Oncol. 6:880-888 (1988)). Our compounds were evaluated in vitro using concentrations likely to be pharmacologically relevant. […] To determine potency relative to verapamil, we compared the equieffective concentrations. […]. Oncol. 9:17-24 (1991); Dalton, W. D. et al., J. Clin. Oncol. 7:415-424 (1989)). Similar serum levels of progestagens are achieved in patients receiving standard dosing, e.g. megesterol acetate (0.7 μM) (Lundgren & Lonning, J. Steroid. Biochem. 36:105-109 (1990)).
(§5) We then determined the relative potency for increasing [^3 H] VBL accumulation in control (parental) and resistant cells (MCF-7^ADR) and/or MDR1 transduced in comparison with progesterone and verapamil. […]. […]

[5] = tested on: CL 10.3 cells; test: [^3 H] VBL accumulation in MDR1-transduced CL 10.3 cells; format: cell-based, human
Procedure: While many PGP-reversing agents have been studied, the majority are maximally active in vitro at concentrations≥10 μM. […] Our compounds were evaluated in vitro using concentrations likely to be pharmacologically relevant. […] To determine potency relative to verapamil, we compared the equieffective concentrations. […] Oncol.
We then determined the relative potency for increasing [^3 H] VBL accumulation in control (parental) and resistant cells (MCF-7^ADR) and/or MDR1 transduced in comparison with progesterone and verapamil.

[6] = tested on: sensitive parental cells; test: Effect in sensitive (parental) control cells: VBL accumulation and resistance reversal; format: cell-based, human
Excerpt: We then determined the relative potency for increasing [^3 H] VBL accumulation in control (parental) and resistant cells (MCF-7^ADR) and/or MDR1 transduced in comparison with progesterone and verapamil. […]. […] […].
(§6) The ability of compound 4 to reverse both [^3 H]

[7] = tested on: MCF-7^ADR cells; test: [^3 H] VBL accumulation in MCF-7^ADR cells; format: cell-based, human
Procedure: 5:231-243 (1985)) and provide sufficient free TAM levels in the ER-positive cells.
as §4, §5

[8] = format: in vitro ADME
Excerpt: as §3, §6

[9] = MCF-7^ADR and MDR-transfected cells, up to

CC(=O)C1CCC2C3C(Sc4ccc(NC(=O)NCCc5ccccc5)cc4)CC4=CC(=O)CCC4(C)C3CCC12C (stereo not shown) [Compound 4]
fold sensitization to VBL at VBL's IC50 ([1]; transduced MDA435/LLC6 cells): 20 fold | residual VBL resistance ([1]; MDA435/LCC6MDR1, from an initial 49-fold): 2.4 fold | fold sensitization to VBL at VBL's IC50 ([2]; 1 μM compound 4, MCF-7^ADR): up to 9 fold | residual VBL resistance ([2]; MCF-7^ADR, 1 μM compound 4, from an initial 32-fold): 3.8 fold | potency relative to progesterone in increasing VBL cytotoxicity ([2]; human): approximately 23 fold | potency relative to verapamil in increasing VBL cytotoxicity ([2]; human): approximately 6 fold | reversing PGP-mediated resistance [3]: highly potent | maximal increase in intercellular VBL relative to verapamil [4]: equivalent to that achievable with verapamil | potency relative to progesterone (fold more potent) [4, 9]: up to 35 fold | potency relative to verapamil, equal-molar basis (ratio of ED50 s) [4, 9]: up to 6 fold | potency relative to verapamil in vitro (VBL accumulation and cytotoxicity) ([4]; human): ≥ 6 fold | effectiveness among the novel C7 analogs ([4]; preliminary analyses): more effective of the novel C7 analogs | increasing [^3 H] VBL accumulation ([4]; preliminary data): highly potent | potency in increasing [^3 H] VBL accumulation relative to the lead compound (progesterone) ([4]; up to): up to 35 fold | potency in increasing [^3 H] VBL accumulation relative to verapamil ([4]; up to): up to 7 fold | concentration equieffective with the ED50 of verapamil for increasing intracellular VBL: fold lower than progesterone [5]: 30 fold | concentration equieffective with the ED50 of verapamil for increasing intracellular VBL: fold lower than verapamil [5]: 7 fold | specificity for PGP ([6]; PGP-resistant vs sensitive parental cells): specific for PGP | activity in sensitive control cell populations ([6]; sensitive control / parental cells): not in sensitive control cell populations | concentration equieffective with the ED50 of verapamil for increasing intracellular VBL: fold lower than progesterone [7]: 35 fold | concentration equieffective with the ED50 of verapamil for increasing intracellular VBL: fold lower than verapamil [7]: 5 fold | stability in vitro [8]: stable in vitro
